{"source": "paper PMC3050433", "about": "“The effects of maribavir on the autophosphorylation of ganciclovir resistant mutants of the cytomegalovirus UL97 protein” (Herpesviridae, 2010)", "key": {"[1]": {"molecular_target": "T1, UL97 L397R (Human cytomegalovirus, UniProt Q68101, L397R)", "T1 construct": "PCR reaction to generate the full length UL97; honey bee melittin secretion signal (N); expressed in transfected cells; host or cells: Sf21 insect cells infected with recombinant baculovirus", "T1 sequence (Q68101 1-707 L397R)": "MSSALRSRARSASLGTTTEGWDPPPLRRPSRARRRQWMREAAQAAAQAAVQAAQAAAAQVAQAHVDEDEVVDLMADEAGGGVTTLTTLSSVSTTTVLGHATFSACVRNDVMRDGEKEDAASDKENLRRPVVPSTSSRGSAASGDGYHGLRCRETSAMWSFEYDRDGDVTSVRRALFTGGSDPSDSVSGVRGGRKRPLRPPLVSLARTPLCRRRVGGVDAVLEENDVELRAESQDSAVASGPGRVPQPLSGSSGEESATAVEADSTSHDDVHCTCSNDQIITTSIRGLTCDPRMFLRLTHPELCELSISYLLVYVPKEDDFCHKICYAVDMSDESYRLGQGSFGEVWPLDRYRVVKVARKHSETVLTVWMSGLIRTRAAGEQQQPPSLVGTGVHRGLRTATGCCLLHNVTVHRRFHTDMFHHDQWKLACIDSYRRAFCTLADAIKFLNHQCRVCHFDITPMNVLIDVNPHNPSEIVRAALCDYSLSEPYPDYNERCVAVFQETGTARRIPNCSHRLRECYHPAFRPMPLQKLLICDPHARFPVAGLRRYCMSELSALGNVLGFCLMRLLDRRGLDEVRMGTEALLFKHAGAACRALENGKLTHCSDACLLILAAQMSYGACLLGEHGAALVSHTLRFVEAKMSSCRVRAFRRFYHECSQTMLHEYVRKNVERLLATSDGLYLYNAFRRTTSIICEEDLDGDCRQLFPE", "test": "UL97 autophosphorylation protein kinase assay, L397R", "assay_type": "biochemical", "conditions": "L397R mutant", "procedure": "(§1) Analysis of the autophosphorylation of wild type and mutant UL97 protein species was performed by a standard protein kinase assay as previously described (46). Briefly, purified protein was added to 2× protein kinase buffer (100 mM Tris HCl, pH9.0, 20 mM MgCl2, 10 μM ATP, 4 mM DTT, 2 M NaCl) and 370 KBq [γ^32P] ATP (Amersham), made up to 20 μl with SDW and incubated at 37°C. The reactions were terminated by the addition of 2× SDS sample buffer followed by boiling for 3 minutes. The amount of radiolabelled phosphate incorporated by autophosphorylation was analysed by SDS-PAGE and measured using the Biorad Mulitanalyst. The protein kinase assays were initially performed for 2 to 60 minutes to determine the maximum rate of phosphate incorporation, all assays were then performed at the maximum rate which equated to 5 minutes.\n(§2) Enzyme kinetic analysis was performed on the purified wild type and mutant UL97 protein species as above using increasing concentrations of ATP (2 μM to 20 μM). The amount of incorporated radiolabelled phosphate was plotted against the concentration of ATP in a Lineweaver Burke plot to determine the Km for ATP for each UL97 species. […]"}, "[2]": {"molecular_target": "T2, UL97 D456A (Human cytomegalovirus, UniProt Q68101, D456A)", "T2 construct": "PCR reaction to generate the full length UL97; honey bee melittin secretion signal (N); made in house; host or cells: Sf21 insect cells, recombinant baculovirus (pMelBac C)", "T2 sequence (Q68101 1-707 D456A)": "T1 sequence (Q68101 1-707 L397R) with R397L, D456A", "test": "UL97 autophosphorylation protein kinase assay, D456A", "assay_type": "biochemical", "conditions": "D456A mutant", "procedure": "as §1, §2"}, "[3]": {"test_system": "wild type and mutant UL97 proteins", "test": "UL97 autophosphorylation protein kinase assay, all UL97 species pooled", "assay_type": "biochemical, human cytomegalovirus", "conditions": "maribavir 0.5 μM; every form of UL97 investigated (mutant and wild type)", "procedure": "as §1, §2"}, "[4]": {"test_system": "HCMV", "parameters": "method as in PMID 12121906", "conditions": "HCMV replication in vitro; cited from earlier work"}}, "note": "Changes are numbered by the printed parent chain.", "data": [{"smiles": "CC(C)Nc1nc2cc(Cl)c(Cl)cc2n1[C@H]1O[C@@H](CO)[C@H](O)[C@@H]1O", "note": "[maribavir, 5,6-dichloro-2-(isopropylamino)-1-beta-L-ribofuranosyl-1H-benzimidazole]", "values": [{"measurement": "reduction in autophosphorylation", "setting": "[1]; drug concentrations increased to 100 μM", "result": "did not exhibit a reduction in autophosphorylation"}, {"measurement": "effect on autophosphorylation", "setting": "[1]; maribavir 0.5 μM", "result": "unaffected"}, {"measurement": "IC50", "setting": "[2]", "result": 34, "unit": "nM"}, {"measurement": "autophosphorylation as % of total phosphorylation of the wild type UL97 protein", "setting": "[3]", "result": "below 10%"}, {"measurement": "IC50 fold lower than that observed for GCV", "setting": "[4]", "result": "4-to 10 fold"}]}]}
